Measurements: the NIST ThermoML archive (doi:10.1021/acs.jced.8b00427)
± gives the expanded uncertainty stated by the source.

Settings: Liquid, Frequency=4 MHz, Pulse-echo method

FC(F)(F)/C=C/Cl [(E)-1-chloro-3,3,3-trifluoroprop-1-ene]
Settings | speed of sound [m/s]
273.14 K, 30070 kPa | 936.9 ± 1.2
273.15 K, 5030 kPa | 815.43 ± 1.1
273.15 K, 20150 kPa | 892.92 ± 1.1
273.15 K, 25090 kPa | 915.36 ± 1.1
273.16 K, 190 kPa | 786.78 ± 1
273.16 K, 1000 kPa | 791.78 ± 1
273.16 K, 10050 kPa | 842.75 ± 1.1
273.16 K, 35030 kPa | 957.33 ± 1.2
283.14 K, 5170 kPa | 778.28 ± 1
283.14 K, 10020 kPa | 806.46 ± 1.1
283.14 K, 24930 kPa | 882.24 ± 1.1
283.14 K, 30260 kPa | 906.25 ± 1.1
283.15 K, 190 kPa | 746.74 ± 1
283.16 K, 980 kPa | 752.01 ± 1
283.16 K, 20000 kPa | 858.64 ± 1.1
283.16 K, 34920 kPa | 926.3 ± 1.2
293.15 K, 170 kPa | 707.09 ± 0.96
293.15 K, 9990 kPa | 771.05 ± 1
293.15 K, 20000 kPa | 826.3 ± 1.1
293.15 K, 35000 kPa | 896.92 ± 1.1
293.16 K, 1030 kPa | 713.25 ± 0.97
293.16 K, 5090 kPa | 740.63 ± 0.99
293.16 K, 30100 kPa | 875.12 ± 1.1
313.14 K, 270 kPa | 628.5 ± 0.9
313.15 K, 5010 kPa | 666.72 ± 0.93
313.15 K, 10000 kPa | 702.15 ± 0.96
313.15 K, 19990 kPa | 763.58 ± 1
313.15 K, 30050 kPa | 816.73 ± 1.1
313.15 K, 34920 kPa | 840.09 ± 1.1
313.16 K, 1180 kPa | 636.05 ± 0.9
333.14 K, 5010 kPa | 594.52 ± 0.86
333.14 K, 9980 kPa | 634.9 ± 0.9
333.15 K, 19990 kPa | 704.25 ± 0.95
333.15 K, 29970 kPa | 761.64 ± 1
333.15 K, 35060 kPa | 787.99 ± 1
353.14 K, 10010 kPa | 571.03 ± 0.84
353.14 K, 15090 kPa | 612.03 ± 0.87
353.14 K, 20150 kPa | 648.34 ± 0.91
353.15 K, 24990 kPa | 679.91 ± 0.93
353.15 K, 30000 kPa | 710.32 ± 0.96
353.15 K, 35040 kPa | 738.23 ± 0.98
